Measurements reported in PubChem BioAssay (NCI).
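Tested at 5 concentrations; 48 h exposure; 96-well plates; endpoints linearly interpolated, else capped at highest concentration. GI50 = concentration required for 50% inhibition of growth. At the TGI there is no net growth.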

What was measured:
Assay in all cases: NCI-60 cell line screen, 48 h
HOP-92 NSCLC = tested on: HOP-92 NSCLC
MDA-MB-435 = tested on: MDA-MB-435
MOLT-4 leukemia = tested on: MOLT-4 leukemia
BT-549 breast = tested on: BT-549 breast
K-562 leukemia = tested on: K-562 leukemia
OVCAR-4 ovarian = tested on: OVCAR-4 ovarian
HCT-116 colon = tested on: HCT-116 colon
KM12 colon = tested on: KM12 colon
CAKI-1 renal = tested on: CAKI-1 renal
SF-539 CNS = tested on: SF-539 CNS

Structure (SMILES)	TGI (HOP-92 NSCLC)	TGI (MDA-MB-435)	TGI (MOLT-4 leukemia)	TGI (BT-549 breast)	TGI (K-562 leukemia)	TGI (OVCAR-4 ovarian)	TGI (HCT-116 colon)	TGI (KM12 colon)	TGI (CAKI-1 renal)	TGI (SF-539 CNS)	GI50 (HOP-92 NSCLC)	GI50 (MDA-MB-435)	GI50 (MOLT-4 leukemia)	GI50 (BT-549 breast)	GI50 (K-562 leukemia)	GI50 (HCT-116 colon)	GI50 (SF-539 CNS)	GI50 (KM12 colon)	GI50 (CAKI-1 renal)
CCCCCCCCC/C=C1/CC(CO)(COC(=O)C2CCCCC2)OC1=O (stereo not given)	> 100 µM	> 100 µM	> 100 µM	> 100 µM	> 100 µM	> 100 µM	> 100 µM	> 100 µM	> 100 µM										
CCN1CCC(O)(/C=C/c2ccc(Cl)c(Cl)c2)C(C(=O)/C=C/c2ccc(Cl)c(Cl)c2)C1 (stereo not given)	1.58 µM	2.22 µM		2.01 µM	8.51 µM	2.21 µM	1.73 µM	1.88 µM	3.21 µM	3.55 µM									
COc1ccccc1-c1nc[nH]c1-c1ccccc1OC	> 100 µM		> 100 µM	> 100 µM	65 µM	> 100 µM	> 100 µM	28.3 µM	> 100 µM										
CN(C)c1ccc(/C=C(\C#N)C(=O)c2ccccc2)cc1Br	> 100 µM		> 100 µM		> 100 µM	> 100 µM	> 100 µM	> 100 µM	> 100 µM	> 100 µM									
CN(C)CC(O)CNC(=O)Nc1ccccc1 (stereo not given)	> 100 µM	> 100 µM		> 100 µM	> 100 µM	> 100 µM	> 100 µM	> 100 µM	> 100 µM	> 100 µM									
CN(CCCNC(=O)c1[nH]nc2c1ccc1ccccc12)CCCNC(=O)c1[nH]nc2c1ccc1ccccc12	28.3 µM	7.71 µM	26.2 µM	29.4 µM		37.4 µM	25.2 µM	39.7 µM	33.6 µM	24 µM									
CC(C)c1cccc(C(C)C)c1NC(=O)/C(Cc1nc2ccc(Cl)cc2[nH]c1=O)=N\NC(=O)C[N+](C)(C)C	> 100 µM		> 100 µM		> 100 µM	> 100 µM	> 100 µM	> 100 µM	> 100 µM	> 100 µM									
Clc1cccc(C=NC23CC4CC(CC(C4)C2)C3)c1Cl	> 10 µM	> 10 µM		> 10 µM	> 10 µM	> 10 µM	> 10 µM	> 10 µM	> 10 µM	> 10 µM									
CC(=O)Nc1ccc(S(=O)(=O)Nc2cnc3ccccc3n2)cc1	> 100 µM		> 100 µM		> 100 µM	> 100 µM		> 100 µM	> 100 µM	> 100 µM									
O=C1C2Cc3ccccc3CN2C(=O)N1CN1CCCCC1 (stereo not given)			> 100 µM		> 100 µM	> 100 µM		> 100 µM	> 100 µM	> 100 µM									
Nc1ccc(Oc2ccc(C34CC5CC(C3)CC(c3ccc(Oc6ccc(N)c(O)c6)cc3)(C5)C4)cc2)cc1O	4.48 µM		> 100 µM	3.37 µM	> 100 µM	5.28 µM		3.62 µM	3.57 µM	4.57 µM									
Cc1ccc(S(=O)(=O)N(CC(O)COc2ccccc2)c2ccccc2Cl)cc1 (stereo not given)		31.7 µM	52.9 µM	31.4 µM	36.1 µM	26.1 µM	27.7 µM	30.5 µM	44.3 µM	33.2 µM									
Cc1ccnc2[nH]c(-c3ccc(Cl)cc3)cc(=O)c12	> 100 µM		> 100 µM	> 100 µM	60 µM	> 100 µM	> 100 µM	> 100 µM	> 100 µM	> 100 µM									
CCOC1=C2N=C(C(CC)c3ccc(F)cc3)N=C2C(=O)c2ccccc21 (stereo not given)	66.3 µM		> 86.2 µM		> 100 µM	> 94.4 µM	> 61.3 µM	> 56.5 µM	84.7 µM	21.6 µM									
COc1cc2ccnc3c2c(c1OC)N(C)C=C3		80.4 µM	> 100 µM	87.8 µM	65.5 µM	71.2 µM	37.9 µM	> 100 µM	44.8 µM										
Nc1nc(Cl)cc(OCC2(CO)CCCCC2)n1	> 100 µM	> 100 µM	> 100 µM			> 100 µM	> 100 µM			> 100 µM									
O=C(/C=C/c1cc2ccccc2[nH]c1=O)c1ccc(O)cc1	23.2 µM	16.8 µM	9.91 µM	5.35 µM	> 100 µM		4.38 µM	4.5 µM	> 100 µM	8.64 µM	3.26 µM	2.94 µM	3.04 µM	1.95 µM	3.89 µM	1.94 µM	2.55 µM	1.89 µM	4.71 µM
COC(=O)C12CCC(CC1=O)C2(C)C (stereo not given)	> 100 µM		> 100 µM		> 100 µM	> 100 µM	> 100 µM			> 100 µM									
CCOC(=O)C1=C(C)NC(c2ccccc2)=C(C(=O)OCc2ccccc2)C1C#Cc1ccccc1 (stereo not given)		> 100 µM	> 100 µM	> 100 µM	> 100 µM		> 100 µM	> 100 µM	57.4 µM	> 100 µM									
O=C(NC12CC3CC(CC(C3)C1)C2)n1cnc2c(Cl)ncnc21	> 100 µM	40 µM	52.2 µM	84.1 µM	> 100 µM		> 100 µM	> 100 µM	> 100 µM	81.7 µM									
COC(=O)[C@@]1(Cc2ccc(OC(C)=O)cc2)Cc2cc3ccccc3n2N1	> 100 µM	> 100 µM	> 100 µM	> 100 µM		> 100 µM	> 100 µM	> 100 µM	> 100 µM	> 100 µM									
CC(C)C(N=C1CC2CCC1(C(=O)Nc1ccccc1O)C2(C)C)c1ccccc1 (stereo not given)	> 10 µM		> 10 µM		> 10 µM	> 10 µM	> 10 µM	> 10 µM	> 10 µM	> 10 µM									
C#CCN1C(=O)CN2C(Cl)(Cl)C2(c2ccccc2)c2cc(Cl)ccc21 (stereo not given)	> 100 µM		57.4 µM		> 100 µM	> 100 µM	> 100 µM	94 µM	> 100 µM										
